Results from US4999354A, “Imidazoquinoxaline compounds and their preparation and use” (A/S Ferrosan, priority 1987, dated 1991).

Tested on: benzodiazepine receptors
Test: in vivo displacement of 3H-flunitrazepam from brain benzodiazepine receptors in mice
Parameters: species or system mice (female, NMR)
Conditions: test substance intraperitoneally 15 min before 3H-FNM i.v., forebrains taken 20 min after 3H-FNM
Procedure: The ED50 value represents the dose (mg/kg) of a test substance which causes the specific binding of flunitrazepam to benzodiazepine receptors in a living brain to be reduced to 50% of the control value.
Such an in vivo test is carried out as follows:
Results. The ED50 value is determined from dose response curves.

SMILES: CC(C)n1c(=O)c2c(-c3nc(C4CC4)no3)ncn2c2ccccc21 [Compound 6, 3-(3-cyclopropyl-1,2,4-oxadiazol-5-yl)-4,5-dihydro-5-isopropyl-4-oxo-imidazo[1,5-a] quinoxaline]
- ED50 (dose that inhibits 50% of specific 3H-flunitrazepam binding to brain benzodiazepine receptors): 0.28 mg/kg
